In patent US11091472B2, “PI-kinase inhibitors with anti-infective activity” (The Board of Trustees of the Leland Stanford Junior …, priority 2016, dated 2021):

Legend:
[1] = target: PI4KIIIB (Bos taurus (Bovine), UniProt O02810); assay: PI4KIIIβ kinase assay (immunoprecipitated HA-tagged enzyme, [γ-32P]-ATP); type: biochemical; settings: kinase activity
[2] = target: PI3KC2B (Homo sapiens (Human), UniProt O00750); assay: PI3KC2B kinase assay; type: biochemical; settings: kinase activity
Method: PI-kinase assay: Compounds are tested in C.1.1. PI kinase assays as described by Shokat et al., “A membrane capture assay for lipid kinase activity.” Nat. Protoc. 2007; 2(10):2459-66.
(§1) Selected compounds of Table 1 and 2 were prepared and tested for inhibition activity in a variety of kinase assays.

[3] = target: PI4KIIIA (Homo sapiens (Human), UniProt P42356); assay: PI4KIIIα kinase assay (immunoprecipitated HA-tagged enzyme, [γ-32P]-ATP); type: biochemical; settings: kinase activity
[4] = target: PI3K p110g (Homo sapiens (Human), UniProt P48736); assay: PI3K p110g kinase assay; type: biochemical; settings: kinase activity
Chain of PI3K p110g (P48736 whole entry): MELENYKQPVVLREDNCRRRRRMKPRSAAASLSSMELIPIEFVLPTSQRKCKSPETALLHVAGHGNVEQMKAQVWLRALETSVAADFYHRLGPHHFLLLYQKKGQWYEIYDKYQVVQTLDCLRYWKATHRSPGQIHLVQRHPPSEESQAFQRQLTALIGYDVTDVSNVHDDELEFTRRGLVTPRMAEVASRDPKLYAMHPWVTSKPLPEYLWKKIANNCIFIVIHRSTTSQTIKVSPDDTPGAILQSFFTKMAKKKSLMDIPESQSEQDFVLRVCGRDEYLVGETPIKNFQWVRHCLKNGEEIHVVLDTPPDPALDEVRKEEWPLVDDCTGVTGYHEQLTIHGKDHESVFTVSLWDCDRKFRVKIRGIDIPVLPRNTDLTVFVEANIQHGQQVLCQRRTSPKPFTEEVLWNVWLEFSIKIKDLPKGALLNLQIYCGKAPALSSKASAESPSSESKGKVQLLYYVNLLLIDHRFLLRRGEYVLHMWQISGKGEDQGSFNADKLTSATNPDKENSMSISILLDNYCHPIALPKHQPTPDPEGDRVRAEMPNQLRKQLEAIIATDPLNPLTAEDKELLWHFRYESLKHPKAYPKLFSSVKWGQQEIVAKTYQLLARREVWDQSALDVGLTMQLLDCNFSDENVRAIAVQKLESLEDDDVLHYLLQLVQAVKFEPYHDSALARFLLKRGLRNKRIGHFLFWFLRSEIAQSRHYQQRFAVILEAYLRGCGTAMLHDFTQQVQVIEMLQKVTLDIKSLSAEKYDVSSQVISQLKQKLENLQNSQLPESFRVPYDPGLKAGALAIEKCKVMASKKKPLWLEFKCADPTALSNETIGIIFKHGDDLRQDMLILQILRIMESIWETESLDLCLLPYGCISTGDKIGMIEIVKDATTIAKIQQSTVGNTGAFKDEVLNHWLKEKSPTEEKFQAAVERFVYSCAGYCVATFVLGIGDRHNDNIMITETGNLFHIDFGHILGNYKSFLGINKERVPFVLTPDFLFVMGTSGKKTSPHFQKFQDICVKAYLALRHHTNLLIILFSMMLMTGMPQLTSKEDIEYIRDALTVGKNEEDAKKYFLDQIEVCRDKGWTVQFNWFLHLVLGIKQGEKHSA

[5] = target: PI3KC2G (Homo sapiens (Human), UniProt O75747); assay: PI3KC2G kinase assay; type: biochemical; settings: kinase activity
Chain of PI3KC2G (O75747 whole entry): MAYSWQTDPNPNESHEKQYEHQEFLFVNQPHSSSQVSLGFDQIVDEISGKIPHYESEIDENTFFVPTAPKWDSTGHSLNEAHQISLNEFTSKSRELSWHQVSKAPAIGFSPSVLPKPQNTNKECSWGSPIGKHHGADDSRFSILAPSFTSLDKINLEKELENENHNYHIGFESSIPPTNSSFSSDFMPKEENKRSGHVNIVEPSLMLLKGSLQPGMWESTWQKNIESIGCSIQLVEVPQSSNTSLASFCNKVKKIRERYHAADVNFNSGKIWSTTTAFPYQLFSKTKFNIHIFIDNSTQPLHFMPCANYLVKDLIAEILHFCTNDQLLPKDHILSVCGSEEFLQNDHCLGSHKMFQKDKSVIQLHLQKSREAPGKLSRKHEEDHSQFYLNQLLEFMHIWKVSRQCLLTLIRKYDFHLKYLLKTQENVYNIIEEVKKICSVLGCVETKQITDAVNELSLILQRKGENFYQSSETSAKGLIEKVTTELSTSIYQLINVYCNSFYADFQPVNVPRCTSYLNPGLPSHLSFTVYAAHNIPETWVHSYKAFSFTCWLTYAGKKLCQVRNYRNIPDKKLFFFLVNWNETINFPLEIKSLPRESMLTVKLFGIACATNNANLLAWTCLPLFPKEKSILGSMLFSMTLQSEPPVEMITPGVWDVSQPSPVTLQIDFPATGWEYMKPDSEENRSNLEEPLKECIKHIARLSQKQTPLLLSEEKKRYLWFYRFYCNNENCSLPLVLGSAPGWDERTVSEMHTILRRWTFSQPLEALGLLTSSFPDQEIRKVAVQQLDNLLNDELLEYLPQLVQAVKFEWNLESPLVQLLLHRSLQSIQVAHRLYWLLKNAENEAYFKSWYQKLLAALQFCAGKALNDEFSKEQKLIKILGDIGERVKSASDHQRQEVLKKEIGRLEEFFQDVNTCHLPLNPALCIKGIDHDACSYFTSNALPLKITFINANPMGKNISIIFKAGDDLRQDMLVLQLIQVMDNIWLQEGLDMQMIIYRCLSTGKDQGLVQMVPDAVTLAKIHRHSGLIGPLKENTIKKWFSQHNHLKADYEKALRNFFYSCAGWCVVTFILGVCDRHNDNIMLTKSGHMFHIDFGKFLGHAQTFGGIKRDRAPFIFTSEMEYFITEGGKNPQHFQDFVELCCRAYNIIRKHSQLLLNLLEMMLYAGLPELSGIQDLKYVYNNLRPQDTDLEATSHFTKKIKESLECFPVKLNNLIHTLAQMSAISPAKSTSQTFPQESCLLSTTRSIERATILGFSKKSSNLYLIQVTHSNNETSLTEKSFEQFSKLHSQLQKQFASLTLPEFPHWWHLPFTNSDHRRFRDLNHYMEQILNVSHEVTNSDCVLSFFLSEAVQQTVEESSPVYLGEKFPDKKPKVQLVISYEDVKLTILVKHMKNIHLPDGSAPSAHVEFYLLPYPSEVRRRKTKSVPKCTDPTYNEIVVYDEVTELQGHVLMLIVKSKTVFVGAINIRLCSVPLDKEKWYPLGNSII
Method: PI-kinase assay: Compounds are tested in C.1.1. PI kinase assays as described by Shokat et al., “A membrane capture assay for lipid kinase activity.” Nat. Protoc.
as §1

[6] = test system: Ebola; assay: microbe, parasite or virus in culture; type: cell-based; settings: Zaire ebolavirus, read-out: Ebola EC50
[7] = test system: Enterovirus 68; assay: Enterovirus 68 cell based antiviral assay; settings: Enterovirus D
[8] = test system: Dengue virus 2; assay: Dengue virus 2 cell based antiviral assay
[9] = test system: HCV2a; assay: microbe, parasite or virus in culture; type: cell-based, HCV; settings: Hepatitis C virus, Huh7.5, read-out: HCV2a EC50
[10] = test system: Enterovirus 71; assay: Enterovirus 71 cell based antiviral assay; settings: Enterovirus A
[11] = test system: Poliovirus (WM-3); assay: microbe, parasite or virus in culture; type: cell-based; settings: Enterovirus C, read-out: Poliovirus (WM-3) EC50 (uM)
[12] = test system: MERS coronavirus; assay: microbe, parasite or virus in culture; type: cell-based; settings: Middle East respiratory syndrome-related coronavirus, read-out: MERS coronavirus EC50 (uM)
[13] = test system: NV (GT1); assay: NV (GT1) cell based antiviral assay
Method: Compounds of interest were tested in a variety of cell based assays for antiviral activity.

[14] = target: PI3K p110a (Homo sapiens (Human), UniProt P42336); assay: PI3K p110a kinase assay; type: biochemical; settings: kinase activity
[15] = test system: Influenza A virus H1N1; assay: Influenza A virus H1N1 cell based antiviral assay
[16] = test system: Coxsackie virus B3; assay: Coxsackie virus B3 cell based antiviral assay; settings: Enterovirus B
[17] = test system: Adenovirus 5 (Adenoid 75); assay: Adenovirus 5 cell based antiviral assay; settings: Human mastadenovirus C
[18] = Cell toxicity (CC50); type: cell-based; settings: human, HuH-7 cells
[19] = test system: HRV; assay: Rhinovirus antiviral assay; type: cell-based; settings: Human rhinovirus sp.; Table 5
[20] = test system: EV71; assay: EV71 antiviral assay; type: cell-based; settings: Enterovirus A, Table 5

Chain of PI3KC2B (O00750 whole entry): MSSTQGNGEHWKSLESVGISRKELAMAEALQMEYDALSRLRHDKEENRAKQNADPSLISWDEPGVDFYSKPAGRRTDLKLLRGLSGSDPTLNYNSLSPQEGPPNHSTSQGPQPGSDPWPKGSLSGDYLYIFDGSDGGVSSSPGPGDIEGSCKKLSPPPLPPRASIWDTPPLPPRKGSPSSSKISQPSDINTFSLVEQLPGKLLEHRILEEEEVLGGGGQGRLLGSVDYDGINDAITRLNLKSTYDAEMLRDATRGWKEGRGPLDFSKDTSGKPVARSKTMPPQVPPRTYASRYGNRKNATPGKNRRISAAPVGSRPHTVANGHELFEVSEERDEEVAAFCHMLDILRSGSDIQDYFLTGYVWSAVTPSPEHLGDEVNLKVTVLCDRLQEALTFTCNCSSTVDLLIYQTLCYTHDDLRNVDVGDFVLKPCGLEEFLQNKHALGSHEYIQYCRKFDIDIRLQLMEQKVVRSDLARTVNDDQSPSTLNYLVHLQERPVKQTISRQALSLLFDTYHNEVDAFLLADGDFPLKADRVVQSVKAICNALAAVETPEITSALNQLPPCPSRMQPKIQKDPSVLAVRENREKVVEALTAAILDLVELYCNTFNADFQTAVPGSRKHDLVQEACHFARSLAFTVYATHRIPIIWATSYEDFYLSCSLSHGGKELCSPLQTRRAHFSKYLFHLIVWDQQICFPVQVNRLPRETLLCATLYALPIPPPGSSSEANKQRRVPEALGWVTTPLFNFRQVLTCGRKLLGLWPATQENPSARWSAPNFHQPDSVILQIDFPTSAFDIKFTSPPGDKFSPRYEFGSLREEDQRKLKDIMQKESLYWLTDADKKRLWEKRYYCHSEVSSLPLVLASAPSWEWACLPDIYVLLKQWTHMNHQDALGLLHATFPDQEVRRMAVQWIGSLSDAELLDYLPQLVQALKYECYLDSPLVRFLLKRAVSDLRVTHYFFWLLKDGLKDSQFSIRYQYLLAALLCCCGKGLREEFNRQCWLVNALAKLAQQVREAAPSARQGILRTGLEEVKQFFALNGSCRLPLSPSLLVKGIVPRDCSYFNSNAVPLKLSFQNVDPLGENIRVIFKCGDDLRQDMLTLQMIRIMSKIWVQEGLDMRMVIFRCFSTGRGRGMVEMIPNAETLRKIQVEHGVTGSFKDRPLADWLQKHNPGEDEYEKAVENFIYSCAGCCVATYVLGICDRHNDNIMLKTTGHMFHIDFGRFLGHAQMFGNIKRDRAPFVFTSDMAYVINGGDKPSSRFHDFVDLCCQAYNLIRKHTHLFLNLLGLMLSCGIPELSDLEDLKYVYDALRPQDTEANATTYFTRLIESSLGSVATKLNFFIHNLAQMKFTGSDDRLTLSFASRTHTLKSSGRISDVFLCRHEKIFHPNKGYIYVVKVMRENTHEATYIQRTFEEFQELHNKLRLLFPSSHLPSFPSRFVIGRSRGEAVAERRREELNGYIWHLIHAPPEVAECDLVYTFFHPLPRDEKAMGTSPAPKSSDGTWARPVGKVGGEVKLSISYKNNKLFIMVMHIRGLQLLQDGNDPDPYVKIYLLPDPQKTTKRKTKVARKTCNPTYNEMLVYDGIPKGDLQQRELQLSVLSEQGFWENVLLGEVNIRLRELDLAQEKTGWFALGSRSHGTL
Chain of PI4KIIIB (O02810 whole entry): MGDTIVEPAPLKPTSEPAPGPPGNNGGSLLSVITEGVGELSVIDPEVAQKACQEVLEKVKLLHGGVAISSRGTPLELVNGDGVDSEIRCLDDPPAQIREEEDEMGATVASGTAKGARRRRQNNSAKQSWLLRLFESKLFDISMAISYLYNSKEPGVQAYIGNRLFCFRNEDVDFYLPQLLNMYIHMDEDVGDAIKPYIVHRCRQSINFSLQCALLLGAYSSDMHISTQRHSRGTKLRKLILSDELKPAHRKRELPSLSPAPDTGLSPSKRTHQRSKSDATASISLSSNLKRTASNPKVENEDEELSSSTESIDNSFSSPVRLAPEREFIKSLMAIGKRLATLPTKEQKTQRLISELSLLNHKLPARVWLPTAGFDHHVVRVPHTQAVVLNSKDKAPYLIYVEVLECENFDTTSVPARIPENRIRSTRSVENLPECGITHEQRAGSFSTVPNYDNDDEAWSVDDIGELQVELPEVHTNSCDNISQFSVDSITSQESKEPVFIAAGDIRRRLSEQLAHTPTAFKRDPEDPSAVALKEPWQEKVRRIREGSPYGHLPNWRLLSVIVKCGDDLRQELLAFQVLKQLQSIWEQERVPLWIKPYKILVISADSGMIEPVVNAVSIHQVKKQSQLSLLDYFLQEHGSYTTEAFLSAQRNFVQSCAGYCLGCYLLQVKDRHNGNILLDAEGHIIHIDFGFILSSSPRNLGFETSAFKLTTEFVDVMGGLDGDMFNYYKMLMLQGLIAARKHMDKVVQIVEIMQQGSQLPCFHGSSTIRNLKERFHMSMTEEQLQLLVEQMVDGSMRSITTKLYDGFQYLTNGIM

Row | Structure (SMILES) | IC50 [1] [nM] | IC50 [2] [nM] | IC50 [3] [nM] | IC50 [4] [nM] | IC50 [5] [nM] | EC50 [9] [nM] | IC50 [14] [nM] | CC50 [18] [nM] | further results
1 | COc1ccc(-c2sc(NC(C)C)nc2C)cc1S(=O)(=O)N[C@H]1CC[C@H](O)CC1 [Compound S-215] | < 100 | > 10000 | 1000 to 10000 | > 10000 | 1000 to 10000 |  |  |  | 
2 | COc1ccc(-c2sc(NC(C)(C)C)nc2C)cc1S(=O)(=O)N[C@H]1CC[C@H](O)CC1 [Compound S-216] | < 100 | > 10000 |  | > 10000 | 1000 to 10000 |  |  |  | 
3 | COc1ccc(-c2sc(NC(=O)CC3CCOCC3)nc2C)cc1S(=O)(=O)Nc1ccc(O)cc1 [Compound S-227] | < 100 | > 10000 |  | > 10000 | 1000 to 10000 | 1 to 100 | > 10000 | > 10000 | EC50 [6]: 100 to 1000 nM; EC50 [7]: < 1 nM; EC50 [8]: > 10000 nM; EC50 [10]: 1 to 100 nM; EC50 [11]: 0.001 to 0.1 µM; EC50 [12]: > 10 µM; EC50 [13]: 100 to 1000 nM; EC50 [15]: > 10000 nM; EC50 [16]: 1 to 100 nM; EC50 [17]: > 10000 nM
4 | COc1ccc(-c2sc(NC(=O)CC3CCOCC3)nc2C)cc1S(=O)(=O)Nc1ccccc1C [Compound S-228] |  |  |  |  |  |  |  | > 10000 | 
5 | COc1ccc(-c2sc(NC(=O)CC3CCOCC3)nc2C)cc1S(=O)(=O)Nc1ccc(O)cc1C [Compound S-231] | < 100 | > 10000 |  | > 10000 | 100 to 1000 |  |  |  | 
6 | COc1ncc(-c2sc(NC(=O)CC3CCOCC3)nc2C)cc1S(=O)(=O)Nc1cccc(O)c1 [Compound S-259] | < 100 |  | < 100 |  | 1000 to 10000 |  | 1000 to 10000 |  | 
7 | COc1ncc(-c2sc(NC(=O)CC3CCOCC3)nc2C)cc1S(=O)(=O)Nc1ccc(F)cc1F [Compound S-260] | < 100 |  | < 100 | > 10000 | > 10000 | 100 to 1000 | > 10000 | > 10000 | 
8 | COc1ncc(-c2sc(NC(=O)CC3CCOCC3)nc2C)cc1S(=O)(=O)Nc1ccc(O)cc1 [Compound S-261] | < 100 |  | < 100 |  | 100 to 1000 | 1 to 100 | 100 to 1000 | > 10000 | 
9 | COc1ncc(-c2sc(NC(=O)CC3CCOCC3)nc2C)cc1S(=O)(=O)N[C@H]1CC[C@@H](O)CC1 [Compound S-262] | < 100 |  | < 100 |  | 100 to 1000 |  | > 10000 |  | 
10 | COc1ncc(-c2sc(NC(=O)CC3CCOCC3)nc2C)cc1S(=O)(=O)NC1CCCC(O)C1 (stereo not shown) [Compound S-263] |  |  |  |  |  | 1 to 100 |  | > 10000 | 
11 | COc1ncc(-c2sc(NC(=O)CC3CCOCC3)nc2C)cc1S(=O)(=O)Nc1cccc(C(=O)O)c1 [Compound S-265] | < 100 |  | < 100 | > 10000 | 1000 to 10000 |  | > 10000 |  | 
12 | COc1ccc(-c2sc(NC(C)C3CCOCC3)nc2C)cc1S(=O)(=O)Nc1ccccc1Cl (stereo not shown) [Compound S-316] |  |  |  |  |  |  |  |  | EC50 [7]: 1 to 100 nM; EC50 [8]: 1000 to 10000 nM; EC50 [10]: 1 to 100 nM; EC50 [19]: 1 to 100 nM; EC50 [20]: 1 to 100 nM; EC50 [11]: 0.1 to 1 µM; EC50 [12]: 1 to 10 µM; EC50 [15]: 1000 to 10000 nM; EC50 [16]: 1 to 100 nM; EC50 [17]: > 10000 nM
13 | COc1ccc(-c2sc(NC(C)C3CCOCC3)nc2C)cc1S(=O)(=O)NC1CCC(O)CC1 (stereo not shown) [Compound S-328] |  |  |  |  |  |  |  |  | EC50 [7]: 1 to 100 nM; EC50 [8]: > 10000 nM; EC50 [10]: 1 to 100 nM; EC50 [19]: 1 to 100 nM; EC50 [20]: 1 to 100 nM; EC50 [11]: 0.001 to 0.1 µM; EC50 [12]: > 10 µM; EC50 [15]: > 10000 nM; EC50 [16]: 1 to 100 nM; EC50 [17]: > 10000 nM
